# Measured values as given in patent US11214803B2, “Modulators of YAP1 expression” (Ionis Pharmaceuticals, Inc., priority 2019, dated 2022).
# Strand notation (5' to 3'): a small letter for the sugar, then the base; units joined by * are phosphorothioate-linked, units joined directly phosphodiester-linked; [ ] holds rarer units or linkages, { } end groups; capitals alone tell only the bases. e = 2'-O-(2-methoxyethyl) (MOE); k = constrained ethyl (cEt); [5mC] = 5-methylcytosine; d = 2'-deoxy (DNA); m = 2'-O-methyl
# System: Yap1 mRNA
# Test: Antisense inhibition of human Yap1 in SNU-449 cells by modified oligonucleotides, single dose (Example 5, RTS36584)
# Format: cell-based
# Conditions: Table 39; SNU-449 cells, 10,000 cells per well, free uptake, 2,000 nM oligonucleotide, approx. 48 hours; RTS36584; normalized to RIBOGREEN; Yap1 mRNA relative to untreated control
# Method in brief: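 SNU-449 cells (10,000/well) took up 2,000 nM oligonucleotide by free uptake for about 48 h. Yap1 mRNA was measured by qRT-PCR with primer probe set RTS36584 and normalised to RIBOGREEN total RNA. Values are % of untreated control; asterisked oligos target the amplicon region.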
row,Substance,YAP1 (% UTC)
1,1198398 (kG*d[5mC]*dA*dC*dT*dT*dT*dT*dA*d[5mC]*dA*kT*eT*kA*eG*kG) [Compound 1198398],18
2,1198375 (kG*dG*dA*dA*dA*dT*dT*dG*dT*d[5mC]*dT*k[5mC]*eA*kT*eG*k[5mC]; antisense) [Compound 1198375],22

# Same assay, conditions: Table 40 (separate experiment); SNU-449 cells, 10,000 cells per well, free uptake, 2,000 nM oligonucleotide, approx. 48 hours; RTS36584; normalized to RIBOGREEN; Yap1 mRNA relative to untreated control
row,Substance,YAP1 (% UTC)
1,1198727 (kA*eT*kT*dA*dG*dA*dG*dT*dA*dT*dG*dT*eG*eG*k[5mC]*kA; antisense) [Compound 1198727],19
2,1198764 (kA*eG*kA*dT*dT*dT*dA*dG*dG*dA*dT*dG*e[5mC]*eA*kT*kG; antisense) [Compound 1198764],28
3,1198728 (kT*eA*kT*dT*dA*dG*dA*dG*dT*dA*dT*dG*eT*eG*kG*k[5mC]; antisense) [Compound 1198728],17
4,1198744 (kA*e[5mC]*kT*dT*dT*dT*dA*d[5mC]*dA*dT*dT*dA*eG*eG*kA*kA; antisense) [Compound 1198744],66

# Same assay, conditions: Table 41; SNU-449 cells, 10,000 cells per well, free uptake, 2,000 nM modified oligonucleotide, approximately 48 hours; RTS36584; normalized to RIBOGREEN; Yap1 mRNA relative to untreated control cells
row,Substance,YAP1 (% UTC)
1,1198629 (kA*kT*dT*dG*dT*d[5mC]*dT*d[5mC]*dA*dT*dG*d[5mC]*k[5mC]*eT*kT*eA; antisense) [Compound 1198629],22
2,1198776 (kG*eA*k[5mC]*dA*dA*d[5mC]*dT*d[5mC]*dT*dT*dA*dT*eA*eT*kG*kG) [Compound 1198776],57
3,1198665 (antisense kT*kG*d[5mC]*dT*dT*dT*dG*dG*dA*dA*dG*dA*kT*e[5mC]*kT*eG) [Compound 1198665],38

# Same assay, conditions: Table 42 (separate experiment); SNU-449 cells, 10,000 cells per well, free uptake, 2,000 nM modified oligonucleotide, approximately 48 hours; RTS36584; normalized to RIBOGREEN; Yap1 mRNA relative to untreated control cells
row,Substance,YAP1 (% UTC)
1,1198236 (kG*kT*dG*d[5mC]*dT*dT*dT*dG*dG*dA*dA*eG*eA*eT*k[5mC]*kT) [Compound 1198236],24
2,1198647 (kG*kG*dT*dA*dT*dA*dA*d[5mC]*dT*dG*dG*dG*k[5mC]*eA*kA*eA) [Compound 1198647],47
3,1198214 (kT*kA*dT*dA*dT*dT*dA*dG*dA*dG*dT*eA*eT*eG*kT*kG; antisense) [Compound 1198214],91

# Same assay, conditions: Table 43 experiment; SNU-449 cells, 10,000 cells per well, free uptake, 2,000 nM, approximately 48 hours; RTS36584; Yap1 mRNA normalized to RIBOGREEN, relative to untreated control cells
row,Substance,YAP1 (% UTC)
1,1198281 (kG*kA*d[5mC]*dT*dA*dA*dG*dT*dA*dA*dG*eG*eT*eT*kT*k[5mC]; antisense) [Compound 1198281],71
2,1198283 (kT*kT*dA*dG*dA*d[5mC]*dT*dA*dA*dG*dT*eA*eA*eG*kG*kT; antisense) [Compound 1198283],99
3,1198251 (kT*k[5mC]*dT*dT*dA*dT*dA*dT*dG*dG*dT*eT*eT*eT*kG*kT; antisense) [Compound 1198251],83
4,1198279 (k[5mC]*kT*dA*dA*dG*dT*dA*dA*dG*dG*dT*eT*eT*e[5mC]*k[5mC]*k[5mC]; antisense) [Compound 1198279],43
5,1198276 (kA*kG*dT*dA*dA*dG*dG*dT*dT*dT*d[5mC]*e[5mC]*e[5mC]*eA*kG*kA; antisense) [Compound 1198276],52
6,1198461 (antisense kG*kG*dA*dA*dA*dT*dT*dG*dT*d[5mC]*dT*e[5mC]*kA*eT*kG*e[5mC]) [Compound 1198461],24

# Same assay, conditions: Table 44 experiment; SNU-449 cells, 10,000 cells per well, free uptake, 2,000 nM, approximately 48 hours; RTS36584; Yap1 mRNA normalized to RIBOGREEN, relative to untreated control cells
row,Substance,YAP1 (% UTC)
1,1198901 (kT*kA*dG*dA*dG*dT*dA*dT*dG*dT*dG*kG*d[5mC]*kA*dA*kT; antisense) [Compound 1198901],28
2,1198506 (kA*kT*dA*dT*dG*dG*dT*dT*dT*dT*dG*eT*kG*eT*kG*eT; antisense) [Compound 1198506],47
3,1198532 (kA*kA*d[5mC]*dT*dT*dT*dA*dA*dA*dG*dT*eG*kT*eA*kT*eG; antisense) [Compound 1198532],36

# Same assay, conditions: Table 45; Yap1 mRNA as percent of untreated control, SNU-449 cells, single dose
row,Substance,YAP1 (% UTC)
1,1198894 (kG*kA*dA*dA*dT*dT*dG*dT*d[5mC]*dT*d[5mC]*kA*dT*kG*d[5mC]*k[5mC]; antisense) [Compound 1198894],57
2,1198916 (kA*k[5mC]*dT*dT*dT*dT*dA*d[5mC]*dA*dT*dT*kA*dG*kG*dA*kA; antisense) [Compound 1198916],59
3,1198915 (k[5mC]*kT*dT*dT*dT*dA*d[5mC]*dA*dT*dT*dA*kG*dG*kA*dA*k[5mC]; antisense) [Compound 1198915],37
4,1198955 (kA*kT*dG*dT*dA*dA*dT*dA*dT*dT*dG*k[5mC]*dA*kA*dT*k[5mC]; antisense) [Compound 1198955],92

# Same assay, conditions: Table 46; Yap1 mRNA as percent of untreated control, SNU-449 cells, single dose
row,Substance,YAP1 (% UT)
1,1198856 (k[5mC]*kT*dT*dA*dT*dA*dT*dG*dG*dT*dT*kT*eT*kG*eT*kG; antisense) [Compound 1198856],20
2,1198831 (k[5mC]*kA*d[5mC]*dT*dT*dT*dT*dA*d[5mC]*dA*dT*kT*eA*kG*eG*kA; antisense) [Compound 1198831],12
3,1198851 (CAGATTTAGGATGCAT; antisense; chemistry not fully specified) [Compound 1198851],82
4,1198805 (antisense kA*kT*dT*dG*dT*d[5mC]*dT*d[5mC]*dA*dT*dG*k[5mC]*e[5mC]*kT*eT*kA) [Compound 1198805],23

# Same assay, conditions: Table 48; Yap1 mRNA level relative to untreated control; modified oligonucleotides targeting SEQ ID NO.: 1 and 2
row,Substance,YAP1 (% UT)
1,1198298 (kT*kA*kT*dT*dA*dG*dA*dG*dT*dA*dT*dG*kT*eG*kG*e[5mC]; antisense) [Compound 1198298],23
2,1198319 (k[5mC]*kT*kT*dT*dG*dG*dA*dA*dG*dA*dT*d[5mC]*kT*eG*kA*eA; antisense) [Compound 1198319],47
3,1198331 (k[5mC]*kA*kG*dA*dT*dT*dT*dA*dG*dG*dA*dT*kG*e[5mC]*kA*eT; antisense) [Compound 1198331],26
4,1197215 (antisense kA*kA*kG*dT*dG*dT*dA*dT*dG*dT*d[5mC]*dA*dG*kA*kA*kG) [Compound 1197215],13
5,1198323 (kA*kG*kT*dG*d[5mC]*dT*dT*dT*dG*dG*dA*dA*kG*eA*kT*e[5mC]; antisense) [Compound 1198323],32

# Same assay, conditions: Table 49; Yap1 mRNA level relative to untreated control; modified oligonucleotides targeting SEQ ID NO.: 1 and 2
row,Substance,YAP1 (% UT)
1,1095547 (antisense kA*k[5mC]*kT*dG*dA*dG*dG*dT*dA*dT*dA*dA*k[5mC]*eT*kG*eG) [Compound 1095547],42

# Same assay, conditions: Table 50; Yap1 mRNA remaining as percent of untreated control (UT), SNU-449 cells, single dose
row,Substance,YAP1 (% UT)
1,1198617 (antisense k[5mC]*kT*kT*dT*dA*dA*dA*dG*dT*dG*dT*dA*kT*kG*kT*e[5mC]) [Compound 1198617],34
2,1197245 (antisense kT*kT*kT*dT*mA*d[5mC]*dA*dT*dT*dA*dG*dG*dA*kA*k[5mC]*kA) [Compound 1197245],60
3,1198620 (kA*kG*kT*dA*dA*dG*dG*dT*dT*dT*d[5mC]*d[5mC]*k[5mC]*kA*kG*eA) [Compound 1198620],26
4,1197284 (kA*kG*kT*dA*mU*dG*dT*dG*dG*d[5mC]*dA*dA*dT*kA*kA*kT; antisense) [Compound 1197284],35
5,1198626 (kA*kG*kA*d[5mC]*dT*dA*dA*dG*dT*dA*dA*dG*kG*kT*kT*eT; antisense) [Compound 1198626],99

# Same assay, conditions: Table 51; Yap1 mRNA remaining as percent of untreated control (UT), SNU-449 cells, single dose
row,Substance,YAP1 (% UT)
1,1197258 (antisense kA*kT*kT*d[5mC]*mA*dG*dA*dT*dT*dT*dA*dG*dG*kA*kT*kG) [Compound 1197258],57
2,1197302 (k[5mC]*kA*kG*dA*mU*dT*dT*dA*dG*dG*dA*dT*dG*k[5mC]*kA*kT; antisense) [Compound 1197302],54
3,1197264 (kA*kT*kT*dG*mC*dA*dA*dT*d[5mC]*dT*dG*dT*d[5mC]*kT*kG*kA) [Compound 1197264],33
4,1197255 (antisense kT*kT*kT*dA*mG*dG*dA*dT*dG*d[5mC]*dA*dT*dG*kG*kT*kT) [Compound 1197255],38
5,1197241 (antisense kA*k[5mC]*kT*dG*mA*dG*dG*dT*dA*dT*dA*dA*d[5mC]*kT*kG*kG) [Compound 1197241],19

# Same assay, conditions: Table 52; Yap1 mRNA, modified oligonucleotides targeting SEQ ID NO: 1 and 2
row,Substance,YAP1 (% UT)
1,1200829 (kA*kG*kG*dA*dT*mG*d[5mC]*dA*dT*dG*dG*dT*dT*kT*kT*kT; antisense) [Compound 1200829],49
2,1200855 (kT*kT*kT*dA*dT*mG*dT*dA*dA*dT*dA*dT*dT*kG*k[5mC]*kA; antisense) [Compound 1200855],56

# Same assay, conditions: Yap1 mRNA, percent of untreated control; modified oligonucleotides targeting SEQ ID NO: 1 and 2; Table 47
row,Substance,YAP1 (% UT)
1,1097037 (antisense kA*kG*kA*dT*dT*dT*dA*dG*dG*dA*dT*dG*d[5mC]*kA*kT*kG) [Compound 1097037],38
2,1197227 (antisense kT*kT*kA*dG*dA*d[5mC]*dT*dA*dA*dG*dT*dA*dA*kG*kG*kT) [Compound 1197227],64
